These results are taken from patent US8461182B2, “7-piperidinoalkyl-3, 4-Dihydroquinolone derivative” (Taisho Pharmaceutical Co., Ltd., priority 2008, dated 2013).

Where a name gives a salt, the structure may show the parent alone.

One test has as its target T1, MCH1R (Homo sapiens, UniProt Q99705).
T1 construct: IC50; other: cells stably expressing non-endogenous active MCH1R; 50 nM MCH; Fluo-4 calcium, FDSS6000
Kind of test: Calcium Evaluation Test for MCH1R (FDSS assay, MCH-induced intracellular calcium increase). The test is classed as cell-based. As to conditions: cells stably expressing non-endogenous active MCH1R; 50 nM MCH; Fluo-4 calcium, FDSS6000. The text has this: Calcium Evaluation Test for MCH1R
An FDSS assay can measure the intracellular calcium concentration and can evaluate the Gq-coupled receptor activity using the calcium concentration as an index. For example, the assay can determine whether an analyte is an antagonist, an inverse agonist or an agonist for a Gq-coupled receptor. The FDSS6000™ system (Hamamatsu Photonics K.K.) is designed to perform evaluation based on functionality such as measurement of intracellular calcium for high-throughput screening. Intracellular calcium release by activation of a Gq-coupled receptor can be fluorometrically measured by incorporating a calcium indicator (such as Fluo4) into cells. On the other hand, the assay cannot measure the activation of Gi- and Go-coupled receptors, because the activation is not associated with calcium signaling pathways.
Intracellular fluorescence can be rapidly and successively measured in a 96-well microplate or a 384-well microplate using a fluorometric imaging plate reader system. FDSS6000™ can simultaneously measure fluorescence in all wells sensitively, accurately and by seconds. This system is ideal for functional analysis in cells such as monitoring of an intracellular calcium flow generated within several seconds after activation of a Gq-coupled receptor.
On the day before the test, cells stably expressing non-endogenous active MCH1R were seeded into a 96-well microplate at 3×10^4 cells per well. 100 μL per well of a medium (Dulbecco's modified Eagle medium containing 10% fetal bovine serum, 2 mM glutamine, 1 mM sodium pyruvate and 0.5 mg/mL G418, pH=7.4) was used for culture. On the day of the test, the medium was removed and an assay buffer {Hank's balanced salt solution containing 20 mM HEPES, 0.5 mM probenecid, 0.05 mg/mL amaranth and 0.2% bovine serum albumin (BSA), pH=7.4} containing 2 μM Fluo-4-AM and 0.04% Pluronic F127 was added at 100 μL per well, followed by incubation in a 5% CO2 incubator at 37° C. for 30 minutes. An assay buffer containing each concentration of MCH was added at 50 μL per well, and transient changes in the intracellular calcium concentration induced by MCH were monitored using FDSS6000™ at Ex. 488 nm and Em. 530 nm for 180 seconds. In testing the antagonistic activity of the analyte, MCH was added to a final concentration of 50 nM. An inhibition curve was prepared with various concentrations of the analyte, and the concentration of the analyte inhibiting 50% of the increase in intracellular calcium when 50 nM MCH was added (IC50 value) was calculated using data analysis software Origin Ver. 6.
A general note: A change in cytosolic calcium serves as a functional read-out for many receptors and channels.
Regarding `COc1cccc(C(=O)NC2CCN(Cc3ccc4c(c3)NC(=O)CC4)CC2)c1` [Example 2, 3-methoxy-N-{1-[(2-oxo-1,2,3,4-tetrahydroquinolin-7-yl)methyl]piperidin-4-yl}benzamide monohydrochloride, monohydrate], the IC50 came out at 6.22 nM.

With `O=C1CCc2ccc(CN3CCC(NC(=O)c4cccc(F)c4)CC3)cc2N1` [Example 3, 3-fluoro-N-{1-[(2-oxo-1,2,3,4-tetrahydroquinolin-7-yl)methyl]piperidin-4-yl}benzamide], the IC50 was 10.9 nM.

Turning to `O=C1CCc2ccc(CN3CCC(NC(=O)c4ccc(F)c(F)c4)CC3)cc2N1` [Example 5, 3,4-difluoro-N-{1-[(2-oxo-1,2,3,4-tetrahydroquinolin-7-yl)methyl]piperidin-4-yl}benzamide], the IC50 worked out at 1.5 nM.

With `O=C1CCc2ccc(CN3CCC(NC(=O)c4cccc(Cl)c4)CC3)cc2N1` [Example 7, 3-chloro-N-{1-[(2-oxo-1,2,3,4-tetrahydroquinolin-7-yl)methyl]piperidin-4-yl}benzamide], the IC50 turned out to be 9.08 nM.

In the case of `Cc1cccc(C(=O)NC2CCN(Cc3ccc4c(c3)NC(=O)CC4)CC2)c1` [Example 8, 3-methyl-N-{1-[(2-oxo-1,2,3,4-tetrahydroquinolin-7-yl)methyl]piperidin-4-yl}benzamide], the IC50 turned out to be 19.2 nM.

`COc1cc(OC)cc(C(=O)NC2CCN(Cc3ccc4c(c3)NC(=O)CC4)CC2)c1` [Example 19, 3,5-dimethoxy-N-{1-[(2-oxo-1,2,3,4-tetrahydroquinolin-7-yl)methyl]piperidin-4-yl}benzamide]: the IC50 turned out to be 3.85 nM.

In the case of `O=C1CCc2ccc(CN3CCC(NC(=O)C(c4ccccc4)c4ccccc4)CC3)cc2N1` [Example 27, N-{1-[(2-oxo-1,2,3,4-tetrahydroquinolin-7-yl)methyl]piperidin-4-yl}-2,2-diphenylacetamide], the IC50 turned out to be 19.7 nM.

For `CC(=O)c1cccc(C(=O)NC2CCN(Cc3ccc4c(c3)NC(=O)CC4)CC2)c1` [Example 32, 3-acetyl-N-{1-[(2-oxo-1,2,3,4-tetrahydroquinolin-7-yl)methyl]piperidin-4-yl}benzamide], the IC50 stood at 10.7 nM.

In the case of `O=C1CCc2ccc(CN3CCC(NC(=O)c4cc(F)c(F)c(F)c4)CC3)cc2N1` [Example 33, 3,4,5-trifluoro-N-{1-[(2-oxo-1,2,3,4-tetrahydroquinolin-7-yl)methyl]piperidin-4-yl}benzamide], the IC50 was 1.96 nM.

Regarding `N#Cc1cccc(C(=O)NC2CCN(Cc3ccc4c(c3)NC(=O)CC4)CC2)c1` [Example 37, 3-cyano-N-{1-[(2-oxo-1,2,3,4-tetrahydroquinolin-7-yl)methyl]piperidin-4-yl}benzamide], the IC50 is 18.3 nM.

Turning to `O=C1CCc2ccc(CN3CCC(NC(=O)c4cncc(Cl)c4)CC3)cc2N1` [Example 38, 5-chloro-N-{1-[(2-oxo-1,2,3,4-tetrahydroquinolin-7-yl)methyl]piperidin-4-yl}pyridine-3-carboxamide], the IC50 was determined as 18.8 nM.

As for `O=C1CCc2ccc(CN3CCC(NC(=O)COc4ccc(F)c(Cl)c4)CC3)cc2N1` [Example 46, 2-(3-chloro-4-fluorophenoxy)-N-{1-[(2-oxo-1,2,3,4-tetrahydroquinolin-7-yl)methyl]piperidin-4-yl}acetamide], the IC50 is 4.34 nM.

With `CC(c1ccc2c(c1)NC(=O)CC2)N1CCC(NC(=O)c2ccc(F)c(Cl)c2)CC1` (stereo not drawn) [Example 51, 3-chloro-4-fluoro-N-{1-[1-(2-oxo-1,2,3,4-tetrahydroquinolin-7-yl)ethyl]piperidin-4-yl}benzamide], the IC50 was 1.07 nM.

With `COc1cccc(C(=O)NC2CCN(Cc3cc4c(cc3F)CCC(=O)N4)CC2)c1` [Example 53, N-{1-[(6-fluoro-2-oxo-1,2,3,4-tetrahydroquinolin-7-yl)methyl]piperidin-4-yl}-3-methoxybenzamide], the IC50 came to 39.3 nM.

A further test deals with MCH1R.
Assay: not given
The settings on record: NON-PATENT DOCUMENT 2; cited from earlier work.
Turning to `CN(C)c1nc(N[C@H]2CC[C@@H](NC(=O)c3ccc(F)c(F)c3)CC2)nc2ccccc12` [ATC0175], the “effects in experimental animal models” value is “antidepressive-like and anxiolytic-like effects”.

Usually IC50 stands for the concentration that gives 50% inhibition.
